The source made the active and inactive calls. The calls are words filed in the database; no cut-off is given here.
Experiments:
RAW264.7 [1] = experiment: Cytotoxicity against LPS-induced mouse RAW264.7 cells assessed as reduction in cell viability at 30 uM pretreated for 1 hr followed by LPS addition and measured after 24 hrs by MTT assay; assay type: toxicity, cell-based; settings: raw264.7, 25 h
RAW264.7 [2] = experiment: Antiinflammatory activity in LPS-induced mouse RAW264.7 cells assessed as inhibition of NO production pretreated for 1 hr followed by LPS stimulation and measured after 24 hrs by griess reagent based assay; assay type: functional, cell-based
Rattus norvegicus [3] = experiment: (§1) Immunomodulatory activity in Freund's complete adjuvant induced Lewis rat model of arthritis assessed as increase in IL-10 level in serum at 20 mg/kg, po administered every 24 hrs for 28 days post immunization starting from day 8 post immunization by ELISA; assay type: functional, organism-based; settings: time 21.0 day
[4] = Toxicity in male Wistar rat assessed as gastrointestinal damage by measuring ulcer index at 50 mg/kg administered by gavage and measured after 6 hrs; assay type: organism-based; settings: in vivo, po
Rattus norvegicus [5] = experiment: as §1, with “anti-IL-10 antibody expression” for “IL-10 level”, “knee joint slices” for “serum”, “immunohistochemistry analysis” for “ELISA”; assay type: functional, organism-based; settings: time 21.0 day
[6] = Toxicity in male Wistar rat assessed as gastrointestinal damage by measuring number of ulcers at 50 mg/kg administered by gavage and measured after 6 hrs (reference value: 0); assay type: organism-based; settings: in vivo, po
Rattus norvegicus [7] = experiment: as §1, with “decrease” for “increase”, “anti-IL-17 antibody expression” for “IL-10 level”, “knee joint slices” for “serum”, “immunohistochemistry analysis” for “ELISA”; assay type: functional, organism-based; settings: time 21.0 day
Rattus norvegicus [8] = experiment: Antiarthritic activity in Freund's complete adjuvant induced Lewis rat model of arthritis assessed as reduction in PGE2 level in serum at 20 mg/kg, po administered every 24 hrs for 28 days post immunization starting from day 8 post immunization by ELISA; assay type: functional, organism-based; settings: time 21.0 day
[9] = Toxicity in male Wistar rat assessed as gastrointestinal damage by measuring level-2 ulcers with 1 to 3 mm area at 50 mg/kg administered by gavage and measured after 6 hrs; assay type: organism-based; settings: in vivo, po
Rattus norvegicus [10] = experiment: Antiarthritic activity in Freund's complete adjuvant induced Lewis rat model of arthritis assessed as reduction in IL-6 level in serum at 20 mg/kg, po administered every 24 hrs for 28 days post immunization starting from day 8 post immunization by ELISA; assay type: functional, organism-based; settings: time 21.0 day
[11] = Toxicity in male Wistar rat assessed as gastrointestinal damage by measuring level-1 ulcers with <1 mm area at 50 mg/kg administered by gavage and measured after 6 hrs; assay type: organism-based; settings: in vivo, po
Rattus norvegicus [12] = experiment: Antiarthritic activity in Freund's complete adjuvant induced Lewis rat model of arthritis assessed as reduction in TNFalpha level in serum at 20 mg/kg, po administered every 24 hrs for 28 days post immunization starting from day 8 post immunization by ELISA; assay type: functional, organism-based; settings: time 21.0 day
[13] = Toxicity in male Wistar rat assessed as gastrointestinal damage by measuring level-3 ulcers with >3 mm area at 50 mg/kg administered by gavage and measured after 6 hrs; assay type: organism-based; settings: in vivo, po
Rattus norvegicus [14] = experiment: Immunomodulatory activity in Freund's complete adjuvant induced Lewis rat model of arthritis assessed as reduction in IL-17 level in serum at 20 mg/kg, po administered every 24 hrs for 28 days post immunization starting from day 8 post immunization by ELISA; assay type: functional, organism-based; settings: time 21.0 day

SMILES | Activity (RAW264.7 [1]) | other results
CCCCCC/C=C(/OC(=O)c1ccccc1OC(C)=O)C(F)(F)F | Non-Toxic | 
CCCCCCCC/C=C\CCCCCC/C=C(/OC(=O)[C@@H](C)c1ccc2cc(OC)ccc2c1)C(F)(F)F | Non-Toxic | 
CCCCC/C=C\C/C=C\CCCCCC/C=C(/OC(=O)[C@@H](C)c1ccc2cc(OC)ccc2c1)C(F)(F)F | Non-Toxic | 
CCCCCCCC/C=C\CCCCCC/C=C(/OC(=O)C(C)c1ccc(-c2ccccc2)c(F)c1)C(F)(F)F (stereo not drawn) | Non-Toxic | 
CCCCC/C=C\C/C=C\CCCCCC/C=C(/OC(=O)c1ccccc1OC(C)=O)C(F)(F)F | Non-Toxic | 
CCCCCCCCCCCCCCCCCC/C=C(/OC(=O)c1ccccc1OC(C)=O)C(F)(F)F | Non-Toxic | 
CCCCCCCCCCCCCC/C=C(/OC(=O)c1ccccc1OC(C)=O)C(F)(F)F | Non-Toxic | 
CCCCCCCCCCCCCCCCCCCC/C=C(/OC(=O)c1ccccc1OC(C)=O)C(F)(F)F | Non-Toxic | 
CCCCC/C=C\C/C=C\C/C=C\C/C=C\CC/C=C(/OC(=O)Cc1c(C)n(C(=O)c2ccc(Cl)cc2)c2ccc(OC)cc12)C(F)(F)F | Non-Toxic | 
CCCCCCCC/C=C(/OC(=O)[C@@H](C)c1ccc2cc(OC)ccc2c1)C(F)(F)F | Non-Toxic | 
CCCCCCCCCCCCCCCC/C=C(/OC(=O)[C@@H](C)c1ccc2cc(OC)ccc2c1)C(F)(F)F | Non-Toxic | 
C=CCCCCCCC/C=C(/OC(=O)[C@@H](C)c1ccc2cc(OC)ccc2c1)C(F)(F)F | Non-Toxic | 
CCCCC/C=C\C/C=C\C/C=C\C/C=C\CCCC(=O)C(F)(F)F [ARACHIDONYL TRIFLUOROMETHYLKETONE] | Non-Toxic | 
CCCCCC/C=C(/OC(=O)C(C)c1ccc(CC(C)C)cc1)C(F)(F)F (stereo not drawn) | Non-Toxic | 
CCCCCCCC/C=C(/OC(=O)c1ccccc1OC(C)=O)C(F)(F)F | Non-Toxic | 
CCCCCCCC/C=C\CCCCCCCCCC/C=C(/OC(=O)C(C)c1ccc(CC(C)C)cc1)C(F)(F)F (stereo not drawn) | Non-Toxic | 
CCCCCCCC/C=C(/OC(=O)C(C)c1ccc(CC(C)C)cc1)C(F)(F)F (stereo not drawn) | Non-Toxic | 
CCCCCCCCCCCCCCCCCCCC/C=C(/OC(=O)C(C)c1ccc(CC(C)C)cc1)C(F)(F)F (stereo not drawn) | Non-Toxic | 
CCCCCCCCCCCCCCCCCC/C=C(/OC(=O)C(C)c1ccc(CC(C)C)cc1)C(F)(F)F (stereo not drawn) | Non-Toxic | 
CCCCC/C=C\C/C=C\C/C=C\C/C=C\CC/C=C(/OC(=O)C(C)c1ccc(-c2ccccc2)c(F)c1)C(F)(F)F (stereo not drawn) | Non-Toxic | IC50 (RAW264.7 [2]): 7.08 µM
CCCCCCCCCCCCCC/C=C(/OC(=O)C(C)c1ccc(-c2ccccc2)c(F)c1)C(F)(F)F (stereo not drawn) | Non-Toxic | 

SMILES | Activity (RAW264.7 [1]) | other results
CCCCCCCCCCCCC/C=C(/OC(=O)C(C)c1ccc(CC(C)C)cc1)C(F)(F)F (stereo not drawn) | Non-Toxic | 
CCCCCCC/C=C(/OC(=O)C(C)c1ccc(CC(C)C)cc1)C(F)(F)F (stereo not drawn) | Non-Toxic | 
CCCCC/C=C\C/C=C\C/C=C\C/C=C\CC/C=C(/OC(=O)[C@@H](C)c1ccc2cc(OC)ccc2c1)C(F)(F)F | Non-Toxic | IC50 (RAW264.7 [2]): 6.67 µM
CCCCCCCC/C=C(/OC(=O)C(C)c1ccc(-c2ccccc2)c(F)c1)C(F)(F)F (stereo not drawn) | Non-Toxic | 
CCCCCCC/C=C(/OC(=O)C(C)c1ccc(-c2ccccc2)c(F)c1)C(F)(F)F (stereo not drawn) | Non-Toxic | 
CCCCCCCCCCCCCCCCCC/C=C(/OC(=O)C(C)c1ccc(C(=O)c2ccccc2)cc1)C(F)(F)F (stereo not drawn) | Non-Toxic | 
CCCCCCCCCC/C=C(/OC(=O)[C@@H](C)c1ccc2cc(OC)ccc2c1)C(F)(F)F | Non-Toxic | 
CCCCCCCC/C=C\CCCCCCCCCC/C=C(/OC(=O)c1ccccc1OC(C)=O)C(F)(F)F | Non-Toxic | 
CCCCCCCCCCCCCC/C=C(/OC(=O)C(C)c1ccc(CC(C)C)cc1)C(F)(F)F (stereo not drawn) | Non-Toxic | 
CCCCCCCCCCCCCC/C=C(/OC(=O)[C@@H](C)c1ccc2cc(OC)ccc2c1)C(F)(F)F | Non-Toxic | 
CCCCCCCCCCCCCCCCC/C=C(/OC(=O)C(C)c1ccc(CC(C)C)cc1)C(F)(F)F (stereo not drawn) | Non-Toxic | 
CCCCCCCCCC/C=C(/OC(=O)c1ccccc1OC(C)=O)C(F)(F)F | Non-Toxic | 
CCCCC/C=C\C/C=C\C/C=C\C/C=C\CC/C=C(/OC(=O)c1ccccc1OC(C)=O)C(F)(F)F | Non-Toxic | 
CCCCCCCCCC/C=C(/OC(=O)C(C)c1ccc(-c2ccccc2)c(F)c1)C(F)(F)F (stereo not drawn) | Non-Toxic | 
CCCCCCCCCCCCCCCC/C=C(/OC(=O)C(C)c1ccc(-c2ccccc2)c(F)c1)C(F)(F)F (stereo not drawn) | Non-Toxic | 
CCCCCCC/C=C(/OC(=O)[C@@H](C)c1ccc2cc(OC)ccc2c1)C(F)(F)F | Non-Toxic | 
CCCCCCC/C=C(/OC(=O)c1ccccc1OC(C)=O)C(F)(F)F | Non-Toxic | 
CCCCCCCC/C=C\CCCCCC/C=C(/OC(=O)C(C)c1ccc(CC(C)C)cc1)C(F)(F)F (stereo not drawn) | Non-Toxic | 
CCCCCCCCCCCCCCCC/C=C(/OC(=O)C(C)c1ccc(CC(C)C)cc1)C(F)(F)F (stereo not drawn) | Non-Toxic | 
CCCCC/C=C\C/C=C\CCCCCC/C=C(/OC(=O)C(C)c1ccc(C(=O)c2ccccc2)cc1)C(F)(F)F (stereo not drawn) | Non-Toxic | 
CCCCC/C=C\C/C=C\C/C=C\C/C=C\CC/C=C(/OC(=O)C(C)c1ccc(CC(C)C)cc1)C(F)(F)F (stereo not drawn) | Non-Toxic | IC50 (RAW264.7 [2]): 4.74 µM

SMILES | Activity (RAW264.7 [1]) | other results
CCC/C=C(/OC(=O)C(C)c1ccc(CC(C)C)cc1)C(F)(F)F (stereo not drawn) | Non-Toxic | 
CCCCCCCCCCCC/C=C(/OC(=O)[C@@H](C)c1ccc2cc(OC)ccc2c1)C(F)(F)F | Non-Toxic | 
C=CCCCCCCC/C=C(/OC(=O)C(C)c1ccc(-c2ccccc2)c(F)c1)C(F)(F)F (stereo not drawn) | Non-Toxic | 
CCCCCCCC/C=C\CCCCCCCCCC/C=C(/OC(=O)C(C)c1ccc(-c2ccccc2)c(F)c1)C(F)(F)F (stereo not drawn) | Non-Toxic | 
CCCCCCCCCCCCCCC/C=C(/OC(=O)C(C)c1ccc(CC(C)C)cc1)C(F)(F)F (stereo not drawn) | Non-Toxic | 
CCCCCCCCCCCCCCCCCCCC/C=C(/OC(=O)[C@@H](C)c1ccc2cc(OC)ccc2c1)C(F)(F)F | Non-Toxic | 
CCCCCCCCCC/C=C(/OC(=O)C(C)c1ccc(C(=O)c2ccccc2)cc1)C(F)(F)F (stereo not drawn) | Non-Toxic | 
CCCCC/C=C\C/C=C\CCCCCC/C=C(/OC(=O)C(C)c1ccc(-c2ccccc2)c(F)c1)C(F)(F)F (stereo not drawn) | Non-Toxic | 
CCCCC/C=C\C/C=C\CCCCCC/C=C(/OC(=O)C(C)c1ccc(CC(C)C)cc1)C(F)(F)F (stereo not drawn) | Non-Toxic | 
CCCCCCCC/C=C\CCCCCC/C=C(/OC(=O)c1ccccc1OC(C)=O)C(F)(F)F | Non-Toxic | 
CCCCCCCCCCCCCCCCCC/C=C(/OC(=O)C(C)c1ccc(-c2ccccc2)c(C)c1)C(F)(F)F (stereo not drawn) | Non-Toxic | 
CCCCCCCCCC/C=C(/OC(=O)C(C)c1ccc(CC(C)C)cc1)C(F)(F)F (stereo not drawn) | Non-Toxic | 
CCCCCCCCCCCCCCCC/C=C(/OC(=O)c1ccccc1OC(C)=O)C(F)(F)F | Non-Toxic | 
CCCCCCCCCCCCCCCCCCCC/C=C(/OC(=O)C(C)c1ccc(-c2ccccc2)c(F)c1)C(F)(F)F (stereo not drawn) | Non-Toxic | 
CCCCCCCC/C=C\CCCCCCCCCC/C=C(/OC(=O)[C@@H](C)c1ccc2cc(OC)ccc2c1)C(F)(F)F | Non-Toxic | 
CCCCCCCCCCCCCCCCCC/C=C(/OC(=O)[C@@H](C)c1ccc2cc(OC)ccc2c1)C(F)(F)F | Non-Toxic | 
CCCCCCCCCCCC/C=C(/OC(=O)C(C)c1ccc(CC(C)C)cc1)C(F)(F)F (stereo not drawn) | Non-Toxic | 
CC(C(=O)O)c1cccc(C(=O)c2ccccc2)c1 (stereo not drawn) [KETOPROFEN] | Non-Toxic | Activity (Rattus norvegicus [3]): Active; UI [4]: 40; Activity (Rattus norvegicus [5]): Active; Activity [6]: 23; Activity (Rattus norvegicus [7]): Active; Activity (Rattus norvegicus [8]): Active; Activity [9]: 30%; Activity (Rattus norvegicus [10]): Active; Activity [11]: 65%; Activity (Rattus norvegicus [12]): Active; Activity [13]: 4%; Activity (Rattus norvegicus [14]): Active; IC50 (RAW264.7 [2]): 7.07 µM
CCCC/C=C(/OC(=O)C(C)c1ccc(CC(C)C)cc1)C(F)(F)F (stereo not drawn) | Non-Toxic | 
CCCCCCCCCCCC/C=C(/OC(=O)c1ccccc1OC(C)=O)C(F)(F)F | Non-Toxic | 
